Our source for the Activity, IC50 and inhibition values is ChEMBL document CHEMBL4251606, “Design and characterization of α-lipoic acyl shikonin ester twin drugs as tubulin and PDK1 dual inhibitors” (Eur J Med Chem, 2018).

Data set [1] relates to HeLa. Put plainly: Cell cycle arrest in human HeLa cells assessed as accumulation of cells at S phase at 4 uM after 24 hrs by propidium iodide staining-based FACScan flow cytometric analysis (reference value: 20.45%). Type of data set: functional.
The test system of data set [2] is L02. Put plainly: Antiproliferative activity against human LO2 cells after 24 hrs by MTT assay. The note with it: L02, 24 h. It is filed as cell-based.
Data set [3] has as its system HeLa. Nature of the data set: Antitumor activity against human HeLa cells xenografted in nude mouse assessed as reduction in tumor size at 1 mg/kg, ip administered once in every 2 days for 15 days relative to control. Type of data set: functional, organism-based. Background: Xenograft models place foreign cells or tissue in a host animal.
Data set [4] concerns HeLa. Nature of the data set: Antiproliferative activity against human HeLa cells after 24 hrs by MTT assay. Type of data set: functional, cell-based. (In general: Tetrazolium assays rely on reduction of a dye to a coloured formazan, in cell work by metabolically active cells.)
For data set [5], the system named is HeLa. Nature of the data set: Cell cycle arrest in human HeLa cells assessed as accumulation of cells at G1 phase at 2 uM after 24 hrs by propidium iodide staining-based FACScan flow cytometric analysis (reference value: 64.58%). It is filed as functional.
Data set [6] has as its system HeLa. Put plainly: Cell cycle arrest in human HeLa cells assessed as accumulation of cells at G1 phase at 1 uM after 24 hrs by propidium iodide staining-based FACScan flow cytometric analysis (reference value: 64.58%). Type of data set: functional. For orientation: In flow cytometry, cells or beads pass a laser one at a time.
Data set [7] relates to HeLa. Put plainly: Cell cycle arrest in human HeLa cells assessed as accumulation of cells at G1 phase at 4 uM after 24 hrs by propidium iodide staining-based FACScan flow cytometric analysis (reference value: 64.58%). Type of data set: functional.
In data set [8] the test system is HeLa. Nature of the data set: Cell cycle arrest in human HeLa cells assessed as accumulation of cells at G2/M phase at 4 uM after 24 hrs by propidium iodide staining-based FACScan flow cytometric analysis (reference value: 14.97%). It is filed as functional.
In data set [9] the test system is HeLa. Nature of the data set: Cell cycle arrest in human HeLa cells assessed as accumulation of cells at S phase at 1 uM after 24 hrs by propidium iodide staining-based FACScan flow cytometric analysis (reference value: 20.45%). Type of data set: functional.
Data set [10] relates to MDA-MB-231. Nature of the data set: Antiproliferative activity against human MDA231 cells after 24 hrs by MTT assay. The note with it: MDA-MB-231, 24 h. Type of data set: functional, cell-based.
The test system of data set [11] is HeLa. Nature of the data set: Cell cycle arrest in human HeLa cells assessed as accumulation of cells at G2/M phase at 1 uM after 24 hrs by propidium iodide staining-based FACScan flow cytometric analysis (reference value: 14.97%). Type of data set: functional.
The test system of data set [12] is HepG2. Put plainly: Antiproliferative activity against human HepG2 cells after 24 hrs by MTT assay. Type of data set: functional, cell-based. The conditions noted are these: HepG2, 24 h.
Data set [13] deals with HeLa. Nature of the data set: Cell cycle arrest in human HeLa cells assessed as accumulation of cells at G2/M phase at 2 uM after 24 hrs by propidium iodide staining-based FACScan flow cytometric analysis (reference value: 14.97%). Type of data set: functional.
Data set [14] relates to HEK-293T. Nature of the data set: Antiproliferative activity against human 293T cells after 24 hrs by MTT assay. It is filed as cell-based.
The subject of data set [15] is HeLa. Nature of the data set: Inhibition of microtubule polymerization in human HeLa cells at 4 uM after 24 hrs by rhodamine/DAPI staining-based confocal microscopic analysis. Type of data set: cell-based.
The test system of data set [16] is HeLa. Nature of the data set: Cell cycle arrest in human HeLa cells assessed as accumulation of cells at S phase at 2 uM after 24 hrs by propidium iodide staining-based FACScan flow cytometric analysis (reference value: 20.45%). It is filed as functional.
Data set [17] relates to Mus musculus. Put plainly: Toxicity in nude mouse xenografted with human HeLa cells assessed as loss in body weight at 1 mg/kg, ip administered once in every 2 days for 15 days. It is filed as organism-based. The conditions noted are these: in vivo.
The test system of data set [18] is A549. Put plainly: Antiproliferative activity against human A549 cells after 24 hrs by MTT assay. It is filed as functional, cell-based. The note with it: A549, 24 h.

Structures are written as SMILES. Active and inactive are the calls of the source. No cut-off for these calls is given here.

One may read the IC50 as the concentration that gives 50% inhibition. For the molecule `CC(C)=CC[C@@H](O)C1=CC(=O)c2c(O)ccc(O)c2C1=O` [SHIKONIN], the Activity in data set [1] is reported as 14.13%; in data set [5], 62.72%; in [6], 63.83%; in data set [7], 57.75%; in data set [8], 28.12%; in [9], 17.42%. For the same molecule, the Activity is recorded as 18.75% in data set [11], 24.03% in [13], 13.25% in [16] and “Toxic” in data set [17]. The IC50 in data set [2] is 3.41 µM; in data set [4] it was 6.86 µM; in [10] it was 8.75 µM; in data set [12], 6.92 µM; in [14], 62.8 µM; in data set [18], 3.53 µM. In addition, the result in [3] was Active. Moreover, in [15], the inhibition entry is “Active”.
